This is an account of results in US20140275257A1, “N-ACETYL CYSTEINE COMPOSITIONS IN THE TREATMENT OF SYSTEMIC LUPUS ERYTHEMATOSUS” (Foundation for the State University of New York, priority 2013, published 2014).

Data set [1] deals with SLE patients. Description: Tolerance and safety, double-blind placebo-controlled pilot study of NAC in SLE. The class given is in vivo, human. How it is done: 36 patients with stable disease were enrolled in a double-blind placebo-controlled treatment trial with N-acetylcysteine (NAC; FDA approval, IND No: 101,320; clinicaltrials.gov identifier: NCT00775476). SLE patients were randomized to receive either placebo (placebo group—dextrose) or NAC (test group) in one of three treatment arms of increasing doses for three months: 600 mg twice daily (Dose 1), 1,200 mg twice daily (Dose 2), or 2,400 mg twice daily (Dose 3). 12 patients were enrolled per treatment arm, 9 received NAC while 3 received placebo.
At each visit, patients were specifically asked about common side effects (nausea, bloating, bad taste) seen in prior trials These side effects were reviewed by the Data Safety and Monitoring Board (DSMB) bi-annually. Tolerance and safety were primary clinical outcomes.
All 24 patients in Dosing Group 1 (1.2 g/day NAC) and 2 (2.4 g/day NAC) completed the treatment and none of the […] in Dosing Group 1 (1.2 g/day NAC) or 2 (2.4 g/day NAC) reported unpleasant smell or taste. Three of 12 patients in Dosing Group 3 (4.8 g/day) dropped out (Table 6) due to 1) heartburn after 26 days, which resolved after discontinuing the capsules; 2) recurrent nausea and one-time vomiting after 46 days, with resolution after discontinuing the capsules; 3) headaches, which were eliminated by halving the dose to 2.4 g/day. Since all three patients reporting intolerance received NAC, in accordance with the DSMP, no higher dose was initiated. Following the last Dosing Group 3 visit, the study was un-blinded.

The test system of data set [2] is FoxP3. Description: FoxP3 expression in T-cell subsets by flow cytometry. The class given is in vivo, human. As to the method: Foxp3 expression was measured in permeabilized cells using Alexa-647-conjugated antibody from BioLegend (San Diego, Calif.; cat No 320014). Up to 11 parameters were recorded simultaneously using a Becton Dickinson LSRII flow cytometer equipped with 20 mW solid-state Nd-YAG (emission at 355 nm), 20 mW argon (emission at 488 nm), 10 mW diode pumped solid state yellow-green (emission 561 nm) and 16 mW heliumneon lasers (emission at 634 nm). Each patient's cells were processed and analyzed in parallel with a matched control. […] FIG. 5A: FoxP3 expression in CD4^+/CD25^+ and CD8^+/CD25^+ T cell subsets of lupus and control donors matched for age, gender, and ethnicity by flow cytometry. Red and blue values indicate percentage of FoxP3^+ cells in lupus and control donors, respectively. FIG. 5B: Cumulative analysis of FoxP3 expression in CD25^+ T-cell subsets in lupus subjects and matched controls. p values reflect comparison with two-tailed unpaired t-test. FIG. 5C: Effect of NAC on Foxp3 expression in CD25^+ T cell subsets of lupus patients exposed to all doses considered together. p values reflect comparison with two-tailed paired t-test.
In general terms: In flow cytometry, cells or beads pass a laser one at a time.

The test system of data set [3] is murine lupus (female NZB×NZW F1 mouse model). The settings on record: Suwannaroj et al. (2001); cited from earlier work.
Data set [4] has as its system lupus T cells. The experiment in a line: Flow cytometry of mitochondrial transmembrane potential, mitochondrial mass, H2O2 and NO in T cells of treated SLE patients. The class given is in vivo, human. The text has this: Cell viability was monitored with annexin V conjugated to fluorescein isothiocyanate (annexin V-FITC conjugate), annexin V conjugated to phycoerythrin (annexin V-PE conjugate), or annexin V conjugated to fluorochrome Cy5 (Annexin V-Cy5 conjugate) matched with emission spectra of propidium iodide (PrI) to detect Annexin V+/PrI− apoptotic cells. Mitochondrial transmembrane potential (ΔΨm) was monitored with mitochondrial potentiometric dyes such as 3,3′-dihexyloxacarbocyanine iodide ((DiOC6), using an excitation wavelength of […] and emission at 488 nm, recorded at 525 nm in the FL-1 (green fluorescence) channel); and tetramethylrhodamine, methyl ester ((TMRM), using an excitation wavelength of […], and emission at 543 nm, recorded at 567 nm in the FL-2 (yellow/orange fluorescence) channel), potential-insensitive mitochondrial dyes such as MitoTracker Green-FM (MTG, 100 nM; excitation: 490 nm, emission: 516 nm recorded in FL-1) or nonyl acridine orange (NAO, 50 nM; excitation: 490 nm, emission: 540 nm recorded in FL-1), superoxide sensing hydroethidine (HE, 1 μM) and H2O2-sensing dichlorofluorescein diacetate (DCF-DA, 1 μM), nitric oxide sensor 4-amino-5-methylamino-2′,7′-difluoroflourescein diacetate (DAF-FM, 1 μM, excitation: 495, emission: 515 nm recorded in FL-1), or cytosolic probes (Fluo-3, 1 μM, excitation: 506 nm, emission: 526 nm recorded in FL-1) and mitochondrial Ca^2+-sensitive fluorescent probes (Rhod-2, 1 μM), respectively.
All metabolic and mitochondrial sensor dyes were obtained from Invitrogen (Carlsbad, Calif.) and used as earlier described in Fernandez, D. R. et al., “Activation of mTOR controls the loss of TCR in lupus T cells through HRES-1/Rab4-regulated lysosomal degradation,” J. Immunol., 182: 2063-2073 (2009); Banki, K. et al., “Glutathione Levels and Sensitivity to Apoptosis Are Regulated by changes in Transaldolase expression,” J. Biol. Chem., 271: 32994-33001 (1996); Banki, K. et al., “Elevation of mitochondrial transmembrane potential and reactive oxygen intermediate levels are early events and occur independently from activation of caspases in Fas signaling,” J. Immunol., 162: 1466-1479 (1999); Nagy, G. et al., “T cell activation-induced mitochondrial hyperpolarization is mediated by Ca^2+- and redox-dependent production of nitric oxide,” J. Immunol., 171: 5188-5197 (2003); and Perl, A. et al., “Apoptosis and mitochondrial dysfunction in lymphocytes of patients with systemic lupus erythematosus,” In: Perl, A., editor. Autoimmunity: Methods and Protocol. 1 ed. Totowa, N.J.: Humana; 2004 p. 87-114, the entire disclosures of each of which are incorporated by reference herein.
NO production (FIG. 3D: DAF-FM fluorescence), and mitochondrial mass were measured in T cell subsets following CD3/CD28 stimulation for 16 h (FIG. 3E: NAO fluorescence). FIG. 3F: Spontaneous apoptosis rate was enumerated by the percentage of Ann V+/PrI− T cells after culture for 16 h. FIG. 3G: Activation-induced apoptosis was assessed following CD3/CD28 co-stimulation for 16 h. Visits: visit 1, before 1st NAC dose; visit 2, after 1-month treatment; visit 3, after 2-month treatment; visit 4, after 3-month treatment; visit 5, after 1-month washout.

Where [5] appears, read: Double Negative (DN) T cells after 3-month NAC treatment, declined after washout.

On to `CC(=O)N[C@@H](CS)C(=O)O` [NAC, N-acetyl-L-cysteine], for which the “patients reporting unpleasant smell or taste” value in data set [1] (Dosing Group 1 (1.2 g/day NAC) or 2 (2.4 g/day NAC)) is “none”. In data set [1] (Dosing Group 3 (4.8 g/day), all three received NAC), the “patients dropped out (heartburn; recurrent nausea and vomiting; headaches)” value is “Three of 12”. Also, the safety and tolerance result in data set [1] (all SLE patients, up to 2.4 g/day) was “safe and tolerated”. For the same molecule, in data set [1] (patients receiving 4.8 g/day), the “patients with reversible nausea” value was 33%. Besides, the “CD4+/CD25+/FoxP3+ T cells” value in data set [2] (4.8 g/day NAC, after 2 months, baseline 3.2±0.6%, p=0.018) is given as 5.2±0.9%. Further, the “FoxP3 expression in CD25+ DN T cells” value in data set [2] (after 2-month NAC treatment, baseline 1.29±0.23%, p=0.0160) is 2.24±0.38%. Further, the “percentage of FoxP3+ cells within the CD4+/CD25+ T-cell compartment” value in data set [2] (all NAC-treated patients, p=0.045) is listed as “increased”. In data set [3], the “outcome of murine lupus in vivo” value is given as “improves the outcome”. Besides, in data set [4] (DN T cells following CD3/CD28 co-stimulation), the Mitochondrial mass entry was “robustly increased”. Further, in data set [4] (setting [5]), the H2O2 levels result is “increased” and the Mitochondrial mass result was “increased”. Also, in data set [4] (after 3 months, p=0.002), the “production of NO” value was determined as 1.61±0.17 fold. In addition, the “Δψm (mitochondrial transmembrane potential)” value in data set [4] (all T cells, p=0.0001) is recorded as “increased”.
